Results as given in ChEMBL document CHEMBL1201862, “PubChem BioAssay data set” (2004).
Active and inactive are the calls of the source.

Assays:
[1] = THP-1 cell cytotoxicity, dose response, cytotoxicity control for non-replicating M. tuberculosis project (AID 489025); type: functional
[2] = molecular target: Serine/threonine-protein phosphatase (Candida dubliniensis (strain CD36 / CBS 7987 / NCPF 3949 / NRRLY-17841) (Yeast), UniProt B9W6M3); assay: blockers of CaCl2-induced CDRE-lacZ signaling – S. cerevisiae, luminescence, secondary, dose response (AID 2388); type: functional, cell-based;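 also: yeast reporter cells carrying a calcineurin-responsive lacZ construct stimulated with calcium chloride; luminescent beta-galactosidase reporter signal in whole cells rather than isolated phosphatase activity; potency for inhibition where a drop in reporter signal means calcineurin blockade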
Sequence of Serine/threonine-protein phosphatase (B9W6M3 whole entry): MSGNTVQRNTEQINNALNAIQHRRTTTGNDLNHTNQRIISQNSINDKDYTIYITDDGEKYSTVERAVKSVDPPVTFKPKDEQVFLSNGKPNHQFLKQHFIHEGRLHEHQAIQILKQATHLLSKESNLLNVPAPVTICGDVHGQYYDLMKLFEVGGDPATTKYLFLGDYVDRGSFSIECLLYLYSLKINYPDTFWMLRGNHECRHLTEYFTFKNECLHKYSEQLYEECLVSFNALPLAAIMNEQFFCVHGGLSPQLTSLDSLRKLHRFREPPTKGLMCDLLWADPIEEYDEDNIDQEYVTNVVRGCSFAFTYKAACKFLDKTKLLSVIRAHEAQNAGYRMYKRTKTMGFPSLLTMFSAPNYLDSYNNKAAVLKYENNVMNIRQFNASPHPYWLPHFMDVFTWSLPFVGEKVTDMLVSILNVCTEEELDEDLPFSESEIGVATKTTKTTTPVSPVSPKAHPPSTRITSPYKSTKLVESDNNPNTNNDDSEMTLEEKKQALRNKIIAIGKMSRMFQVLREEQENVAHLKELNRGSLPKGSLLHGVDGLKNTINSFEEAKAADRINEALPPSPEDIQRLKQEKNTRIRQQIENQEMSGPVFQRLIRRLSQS

[3] = NIH-3T3 fibroblast cytotoxicity, dose response, cytotoxicity control, cell-based, fluorescence, Alamar Blue, secondary assay (AID 2327); type: functional;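 also: NIH-3T3 mouse fibroblasts cultured with fluconazole at 8 µg/mL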
cells = type: functional
[4] = molecular target: ATP-dependent molecular chaperone HSP82 (Candida albicans (strain WO-1) (Yeast), UniProt C4YTQ8); assay: steroid-induced GRE reporter decrease in yeast – S. cerevisiae, luminescence, Hsp90 inhibitor project, dose response (AID 2400); type: functional, cell-based;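 also: beta-galactosidase luminescence from glucocorticoid response element reporter as proxy for Hsp90 function; inhibitor potency where signal loss means Hsp90 inhibition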
Sequence of ATP-dependent molecular chaperone HSP82 (C4YTQ8 whole entry): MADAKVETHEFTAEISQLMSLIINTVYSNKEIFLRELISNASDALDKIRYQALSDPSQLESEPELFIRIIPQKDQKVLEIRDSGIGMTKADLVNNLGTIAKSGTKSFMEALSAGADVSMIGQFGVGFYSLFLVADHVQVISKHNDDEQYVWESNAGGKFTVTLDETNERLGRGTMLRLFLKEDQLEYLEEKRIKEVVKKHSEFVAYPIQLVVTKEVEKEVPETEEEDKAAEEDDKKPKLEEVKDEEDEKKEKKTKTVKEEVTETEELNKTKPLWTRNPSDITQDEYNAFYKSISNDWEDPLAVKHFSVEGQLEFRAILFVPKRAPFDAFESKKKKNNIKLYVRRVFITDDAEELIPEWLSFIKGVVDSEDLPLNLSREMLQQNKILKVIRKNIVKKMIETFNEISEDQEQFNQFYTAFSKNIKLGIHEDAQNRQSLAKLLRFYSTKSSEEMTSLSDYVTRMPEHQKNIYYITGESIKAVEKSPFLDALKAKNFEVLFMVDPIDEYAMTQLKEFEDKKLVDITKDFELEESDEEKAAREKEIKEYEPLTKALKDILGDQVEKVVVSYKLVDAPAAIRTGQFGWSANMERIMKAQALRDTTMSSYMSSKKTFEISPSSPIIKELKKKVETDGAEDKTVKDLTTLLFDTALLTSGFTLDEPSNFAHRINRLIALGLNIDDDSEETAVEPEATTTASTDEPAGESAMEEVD

[5] = fluconazole-exposed Candida albicans growth modulators – fluorescence, retest, confirmation (AID 2467); type: functional, cell-based
[6] = Vero E6 cell cytotoxicity, dose response, cytotoxicity control for non-replicating M. tuberculosis project, secondary assay (AID 492998); type: functional, VeroE6; details: Vero C1008
[7] = HepG2 cell cytotoxicity, dose response, cytotoxicity control for non-replicating M. tuberculosis project (AID 489018); type: functional; details: Mycobacterium tuberculosis
Phospholipase A2 = Phospholipase A2 (Homo sapiens, UniProt P04054); type: functional;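 also: confirmatory dose-response counterscreen on phospholipase A2, testing hits that came from an ultra-high-throughput screen for ATG4B inhibitors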
Sequence of Phospholipase A2 (P04054 whole entry): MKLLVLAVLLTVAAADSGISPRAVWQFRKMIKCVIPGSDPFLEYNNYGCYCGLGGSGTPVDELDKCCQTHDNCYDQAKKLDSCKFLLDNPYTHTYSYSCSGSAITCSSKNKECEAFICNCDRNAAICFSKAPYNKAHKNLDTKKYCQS

Cysteine protease ATG4B = Cysteine protease ATG4B (Homo sapiens, UniProt Q9Y4P1); type: functional;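 also: Fluorescence-based dose-response confirmation assay measuring inhibition of ATG4B activity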
Sequence of Cysteine protease ATG4B (Q9Y4P1 whole entry): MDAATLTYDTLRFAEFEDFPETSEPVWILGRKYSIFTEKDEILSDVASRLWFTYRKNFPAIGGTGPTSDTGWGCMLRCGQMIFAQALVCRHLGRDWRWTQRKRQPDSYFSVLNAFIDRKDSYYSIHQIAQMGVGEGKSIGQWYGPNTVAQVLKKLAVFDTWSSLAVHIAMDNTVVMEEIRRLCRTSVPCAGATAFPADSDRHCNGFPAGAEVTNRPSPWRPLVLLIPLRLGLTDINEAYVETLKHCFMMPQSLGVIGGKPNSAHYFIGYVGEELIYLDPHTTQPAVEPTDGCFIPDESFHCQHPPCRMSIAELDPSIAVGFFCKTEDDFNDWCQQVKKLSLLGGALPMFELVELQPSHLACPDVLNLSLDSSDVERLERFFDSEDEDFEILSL

Vero = assay: Vero E6 cell cytotoxicity, dose response, cytotoxicity control (AID 540298); type: functional; details: Chlorocebus sabaeus
MDCK [8] = assay: MDCK cell cytotoxicity, dose response, cytotoxicity control (AID 540296); type: functional; details: Canis lupus familiaris
MDCK [9] = assay: antiviral activity against H1N1 influenza, dose response, cell-based, strain KY136 (AID 540257); type: functional; details: Canis lupus familiaris
MDCK [10] = assay: antiviral activity against H1N1 influenza, dose response, cell-based, strain KY180 (AID 540254); type: functional; details: Canis lupus familiaris
[11] = PAX5 cellular inhibition readout – cell-based, plate reader, dry powder samples, selectivity assay for PAX8 inhibitor project, dose response (AID 743047); type: functional;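 also: HEK293 cells carrying a Pax5 driven CD19 promoter luciferase reporter; potency of inhibitors that lower reporter luminescence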
[12] = viability of HCT116 lacking mutant beta-catenin – cell-based, human colon tumor, dose response (AID 1045); type: functional;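 also: HCT116 colon tumor cells with beta catenin knocked out; cells exposed to compound for 60 hours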
[13] = COV362 cell viability loss – plate reader, dry powder, SA12, cytotoxicity control for PAX8 inhibitor project, dose response (AID 743144); type: functional, cell-based
[14] = toxicity toward immortalized ovarian surface epithelium – cell-based, plate reader, dry powder samples, cytotoxicity control for PAX8 inhibitor project, dose response (AID 743045); type: functional
[15] = inhibitors acting on PAX2 in cells – cell-based, plate reader, dry powder samples, selectivity assay for PAX8 inhibitor project, dose response (AID 743048); type: functional;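 also: HEK293 cells carrying a WT1 promoter luciferase reporter driven by expressed Pax2; potency is for inhibition of Pax2 driven reporter signal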
[16] = molecular target: T1, Microphthalmia-associated transcription factor (Homo sapiens, UniProt O75030); assay: reducers of TRPM1 reporter luminescence, concentration series – cell-based, SK-MEL-5, cherry-picked, set 3, MITF inhibitor project, dose response (AID 493073); type: functional;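 also: SK-MEL-5 melanoma cells with luciferase driven by the MITF target TRPM1 promoter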
T1 sequence (O75030 whole entry): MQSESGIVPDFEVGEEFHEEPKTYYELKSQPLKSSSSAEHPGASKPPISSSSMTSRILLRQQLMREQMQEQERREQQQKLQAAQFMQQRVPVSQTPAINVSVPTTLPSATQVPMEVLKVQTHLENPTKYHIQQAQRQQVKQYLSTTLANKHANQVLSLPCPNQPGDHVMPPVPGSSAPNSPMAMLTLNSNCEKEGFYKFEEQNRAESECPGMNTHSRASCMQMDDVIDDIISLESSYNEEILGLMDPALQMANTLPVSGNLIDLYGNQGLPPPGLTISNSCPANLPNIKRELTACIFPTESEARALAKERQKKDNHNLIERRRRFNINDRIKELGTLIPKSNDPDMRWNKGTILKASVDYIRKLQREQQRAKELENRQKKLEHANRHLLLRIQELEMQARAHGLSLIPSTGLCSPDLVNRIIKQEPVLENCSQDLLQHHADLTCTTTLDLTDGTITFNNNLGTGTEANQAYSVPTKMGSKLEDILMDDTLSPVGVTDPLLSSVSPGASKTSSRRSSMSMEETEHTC

[17] = PAX8-dependent cell viability loss – plate reader, dry powder, dose response (AID 743049); type: functional, cell-based
[18] = A2780 cell killing – plate reader, dry powder samples, cytotoxicity control, dose response (AID 743046); type: functional, cell-based
[19] = viability of PTEN-deleted HCT116 cells – cell-based, HCT116 PTEN knockout, dose response (AID 1047); type: functional;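 also: HCT116 colon tumor cells with PTEN knocked out; cells exposed to compound for 60 hours before readout; potency for loss of cell viability measured by luminescence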
A-375 = assay: proliferation inhibition in MITF-low A375 cells – cell-based, cherry-pick samples, set 2, counter-screen for MITF modulator project, dose response (AID 540335); type: functional; details: Homo sapiens
[20] = OVCAR-3 cell viability loss – plate reader, dry powder samples, PAX8 inhibitor project, dose response (AID 743044); type: functional, cell-based
[21] = OVCAR4 cell viability loss – plate reader, dry powder, SA11, cytotoxicity control for PAX8 inhibitor project, dose response (AID 743150); type: functional, cell-based; details: OVCAR-4
[22] = IGROV1 cell killing – plate reader, dry powder samples, PAX8 inhibitor project, dose response (AID 743043); type: functional, cell-based; details: IGROV-1
[23] = OV-90 cell viability loss – plate reader, dry powder, SA8, PAX8 inhibitor project, dose response (AID 743149); type: functional, cell-based
Paired box protein Pax-8 = Paired box protein Pax-8 (Homo sapiens, UniProt Q06710); assay: PAX8 transcriptional activity inhibition in RMG-I – RMG-I cells, luciferase, cherry-pick, dose response (AID 687027); type: functional, cell-based;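 also: luciferase reporter driven by Pax8 target thyroperoxidase promoter measured by SteadyGlo luminescence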
Sequence of Paired box protein Pax-8 (Q06710 whole entry): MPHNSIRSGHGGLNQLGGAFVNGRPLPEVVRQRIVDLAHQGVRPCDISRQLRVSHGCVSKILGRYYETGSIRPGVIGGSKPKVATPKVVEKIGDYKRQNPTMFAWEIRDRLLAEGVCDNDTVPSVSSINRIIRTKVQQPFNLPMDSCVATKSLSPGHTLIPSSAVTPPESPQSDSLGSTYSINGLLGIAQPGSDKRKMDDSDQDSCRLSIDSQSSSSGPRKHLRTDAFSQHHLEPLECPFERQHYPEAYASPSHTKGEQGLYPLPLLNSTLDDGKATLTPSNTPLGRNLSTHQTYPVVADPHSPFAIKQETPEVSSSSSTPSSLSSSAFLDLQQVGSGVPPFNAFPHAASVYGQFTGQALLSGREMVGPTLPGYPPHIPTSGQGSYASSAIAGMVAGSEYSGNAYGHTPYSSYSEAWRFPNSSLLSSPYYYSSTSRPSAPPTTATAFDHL

[24] = COV434 cell viability loss – plate reader, dry powder, SA7, cytotoxicity control for PAX8 inhibitor project, dose response (AID 743145); type: functional, cell-based
Prothrombin = Prothrombin (Homo sapiens, UniProt P00734); assay: Thrombin 1536 HTS Dose Response Confirmation. [Related pubchem assays: 1046 (Thrombin 1536 HTS; hits were confirmed in this assay)]; type: functional
[25] = molecular target: Dual specificity tyrosine-phosphorylation-regulated kinase 1A (Rattus norvegicus, UniProt Q63470); type: biochemical, Homo sapiens
[26] = molecular target: T2, Heat shock factor protein 1 (Mus musculus, UniProt P38532); assay: decrease of HSF1-responsive luciferase luminescence – cell-based, NIH3T3, dose retest, confirmation (AID 2382); type: functional;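 also: NIH3T3 fibroblasts with HSF1-driven luciferase reporter stressed by proteasome inhibitor MG132; luminescence from HSF1-driven luciferase expression after 8 hours of MG132 stress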
T2 sequence (P38532 whole entry): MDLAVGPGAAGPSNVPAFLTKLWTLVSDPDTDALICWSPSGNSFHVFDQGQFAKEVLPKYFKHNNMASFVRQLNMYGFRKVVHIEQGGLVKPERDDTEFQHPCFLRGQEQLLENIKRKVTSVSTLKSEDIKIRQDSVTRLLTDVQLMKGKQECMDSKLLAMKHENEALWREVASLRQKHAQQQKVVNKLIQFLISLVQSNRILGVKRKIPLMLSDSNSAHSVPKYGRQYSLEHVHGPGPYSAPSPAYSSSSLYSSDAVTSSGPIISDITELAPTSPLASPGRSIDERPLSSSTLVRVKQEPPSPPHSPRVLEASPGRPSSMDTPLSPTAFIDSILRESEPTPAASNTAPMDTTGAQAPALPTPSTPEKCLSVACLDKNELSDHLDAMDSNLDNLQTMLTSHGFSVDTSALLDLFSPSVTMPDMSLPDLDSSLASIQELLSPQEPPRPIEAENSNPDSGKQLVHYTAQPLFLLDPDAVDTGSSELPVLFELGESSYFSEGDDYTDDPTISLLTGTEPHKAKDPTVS

[27] = molecular target: Dual specificity protein kinase CLK1 (Homo sapiens, UniProt P49759); assay: inhibition of human CLK1 activity – biochemical, cherry-picked samples, selectivity assay for Dyrk1A inhibitor project, dose response (AID 588811)
Sequence of Dual specificity protein kinase CLK1 (P49759 whole entry): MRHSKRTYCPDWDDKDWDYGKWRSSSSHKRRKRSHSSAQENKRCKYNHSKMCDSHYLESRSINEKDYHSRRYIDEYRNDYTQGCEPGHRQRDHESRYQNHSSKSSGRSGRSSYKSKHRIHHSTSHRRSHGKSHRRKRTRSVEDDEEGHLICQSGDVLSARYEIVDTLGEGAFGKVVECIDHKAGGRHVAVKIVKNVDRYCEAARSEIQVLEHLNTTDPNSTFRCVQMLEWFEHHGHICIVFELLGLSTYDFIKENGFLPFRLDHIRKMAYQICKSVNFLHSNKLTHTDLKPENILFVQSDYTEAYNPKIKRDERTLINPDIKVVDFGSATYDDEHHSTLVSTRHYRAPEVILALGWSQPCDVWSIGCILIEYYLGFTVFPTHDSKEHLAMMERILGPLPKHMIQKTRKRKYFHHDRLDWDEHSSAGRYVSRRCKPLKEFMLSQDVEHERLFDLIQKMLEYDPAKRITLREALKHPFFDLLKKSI

SMILES: Cc1ccc(C)c(-c2nnc(NC(=O)c3ccco3)o2)c1
- CC50 [1]: > 40 µM (active)
- EC50 [2]: > 180 µM (inactive)
- EC50 [3]: > 160 µM (inactive)
- IC50 (cells): 2.58 µM (active)
- EC50 [4]: > 160 µM (inactive)
- EC50 [5]: 0.695 µM (active)
- CC50 [6]: 15.8 µM (active)
- CC50 [7]: > 20 µM (active)

SMILES: COc1ccc(C(=O)Nc2cc(C(=O)c3ccccc3)c(C)oc2=O)cc1
- IC50 (Phospholipase A2): 11.7 µM (active)
- IC50 (Cysteine protease ATG4B): 11.3 µM (active)

SMILES: Cc1nnc(NC(=O)CSc2nccn2-c2cccc(C)c2C)s1
- CC50 (Vero): > 40 µM (active)
- CC50 (MDCK [8]): > 40 µM (active)
- IC50 (MDCK [9]): 5.1 µM (active)
- IC50 (MDCK [10]): 10.4 µM (active)

SMILES: COc1ccc(Br)cc1/C=C/C(=O)c1ccc(NC(C)=O)cc1
- AC50 [11]: 7.08 µM (active)
- EC50 [12]: 1.04 µM (active)
- AC50 [13]: 8.41 µM (active)
- AC50 [14]: 9.22 µM (active)
- AC50 [15]: 7.73 µM (active)
- AC50 [16]: 4.64 µM (active)
- AC50 [17]: 11.7 µM (active)
- AC50 [18]: 17.6 µM (active)
- EC50 [19]: 1.12 µM (active)
- AC50 (A-375): 33.2 µM (active)
- AC50 [20]: 8.78 µM (active)
- AC50 [21]: 13.7 µM (active)
- AC50 [22]: 15 µM (active)
- AC50 [23]: 17.9 µM (active)
- AC50 (Paired box protein Pax-8): 3.8 µM (active)
- AC50 [24]: 13.6 µM (active)

SMILES: COc1ccc(-c2n[nH]cc2-c2ccc3c(c2)OCCO3)c(O)c1
- IC50 (Prothrombin): > 50 µM (not active)
- AC50 [25]: 12 µM (active)
- EC50 [26]: 2.8 µM (active)
- AC50 [27]: 8.33 µM (active)
